As a reminder, the IC50 is the concentration at which inhibition is half-maximal.

This assay concerns the target T1, P2X purinoceptor 7 (Homo sapiens, UniProt Q99572).
T1 sequence (Q99572 whole entry): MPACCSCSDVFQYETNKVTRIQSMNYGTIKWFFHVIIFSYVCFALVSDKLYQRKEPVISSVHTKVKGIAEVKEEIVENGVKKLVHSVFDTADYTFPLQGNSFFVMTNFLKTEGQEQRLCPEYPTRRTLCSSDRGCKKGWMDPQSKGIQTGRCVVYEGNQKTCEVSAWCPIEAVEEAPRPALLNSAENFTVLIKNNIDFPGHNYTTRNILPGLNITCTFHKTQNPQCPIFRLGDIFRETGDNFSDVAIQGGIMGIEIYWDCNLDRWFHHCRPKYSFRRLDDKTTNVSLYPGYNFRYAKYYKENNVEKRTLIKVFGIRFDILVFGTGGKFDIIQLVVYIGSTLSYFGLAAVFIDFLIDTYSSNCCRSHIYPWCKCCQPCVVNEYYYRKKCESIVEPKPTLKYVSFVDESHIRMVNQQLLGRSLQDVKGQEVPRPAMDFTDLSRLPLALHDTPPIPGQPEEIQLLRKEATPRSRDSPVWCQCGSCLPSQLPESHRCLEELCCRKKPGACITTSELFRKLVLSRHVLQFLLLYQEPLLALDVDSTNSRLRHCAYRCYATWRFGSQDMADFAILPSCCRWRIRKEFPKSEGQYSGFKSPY
Briefly: SUPPLEMENTARY: Inhibition of human P2X7 receptor assessed as inhibition of ethidium bromide accumulation. Same assay as CHEMBL1103860.
As for `CCOc1ccc(-n2nc(C)c(CC(=O)NCc3ccc(F)cc3Cl)c2C)cc1`, the concentration for half-maximal inhibition (IC50) was 158 nM.

For the compound `O=C(c1ccc(F)c(Cl)c1Cl)N1CCn2c(nnc2-c2cnccn2)C1`, the IC50 is 2 nM.

Consider `O=C(c1ccc(Cl)c(F)c1Cl)N1CCn2c(nnc2-c2cnccn2)C1`, for which the IC50 was 2 nM.

On to `O=C(c1ccc(Cl)c(F)c1Cl)N1CCn2c(nnc2-c2ccncn2)C1`, for which the half-inhibitory concentration (IC50) was 20 nM.

Turning to `O=C(c1ccc(F)cc1Cl)N1CCn2c(nnc2-c2cccc(F)c2)C1`, the IC50 is 15.8 nM.

For the compound `O=C(c1ccc(F)cc1Cl)N1CCn2c(nnc2-c2ccc(F)c(F)c2)C1`, the IC50 was 50.1 nM.

Take `O=C(c1cccc(C(F)(F)F)c1Cl)N1CCn2c(nc(Cl)c2Br)C1`: the IC50 is 2.51 nM.

`O=C(c1cccc(C(F)(F)F)c1Cl)N1CCn2c(nc(Br)c2-c2ccc(F)cc2)C1`: the IC50 was 31.6 nM.

With `COc1cccc(-c2nnc3n2CCN(C(=O)c2ccc(F)cc2Cl)C3)c1`, the IC50 was 25.1 nM.

As for `O=C(c1ccc(F)cc1Cl)N1CCn2c(nnc2-c2cccc(Cl)c2)C1`, the IC50 is 12.6 nM.

As for `COc1ccccc1-c1nnc2n1CCN(C(=O)c1ccc(F)cc1Cl)C2`, the IC50 was 158 nM.

`O=C(c1ccc(F)c(Cl)c1Cl)N1CCn2c(nnc2-c2ccc(F)cn2)C1`: the 50% inhibitory concentration (IC50) was 1.58 nM.

For `O=C(c1cccc(C(F)(F)F)c1Cl)N1CCn2c(nc(C(F)(F)F)c2-c2ccc(F)cc2)C1`, the IC50 was 79.4 nM.

For `O=C(c1ccc(Cl)cc1Cl)N1CCn2c(nc(C(F)(F)F)c2-c2ccc(F)cc2)C1`, the IC50 is 158 nM.

On to `O=C(c1ccc(F)cc1Cl)N1CCn2c(nnc2-c2cccc3cccnc23)C1`, for which the IC50 was 251 nM.

For the compound `O=C(c1ccc(F)cc1Cl)N1CCn2c(nnc2-c2cccc(Cl)c2Cl)C1`, the IC50 was 100 nM.

As for `O=C(c1ccc(F)cc1Cl)N1CCn2c(nnc2-c2cccc(F)c2F)C1`, the IC50 was 39.8 nM.

For `O=C(c1cccc(C(F)(F)F)c1Cl)N1CCn2c(Cl)cnc2C1`, the IC50 is 12.6 nM.

On to `O=C(c1ccc(F)cc1Cl)N1CCn2c(-c3cnccn3)cnc2C1`, for which the IC50 is 3.98 nM.

With `O=C(c1ccc(Cl)cc1Cl)N1CCn2c(Cl)cnc2C1`, the IC50 is 200 nM.

On to `O=C(c1cccc(C(F)(F)F)c1Cl)N1CCn2c(-c3cnccn3)cnc2C1`, for which the IC50 was 2 nM.

On to `O=C(c1ccc(F)cc1Cl)N1CCn2c(nnc2-c2cccc3cc[nH]c23)C1`, for which the IC50 is 31.6 nM.

For `O=C(c1cccc(C(F)(F)F)c1Cl)N1CCn2c(nc(Cl)c2Cl)C1`, the IC50 was 3.16 nM.

Take `O=C(c1ccc(Cl)cc1Cl)N1CCn2c(nc(Cl)c2Cl)C1`: the 50% inhibitory concentration (IC50) was 39.8 nM.

On to `O=C(c1cccc(C(F)(F)F)c1Cl)N1CCn2c(-c3nccs3)cnc2C1`, for which the IC50 is 1.58 nM.

For the compound `O=C(c1ccc(F)cc1Cl)N1CCn2c(-c3ccc(F)cn3)cnc2C1`, the IC50 is 25.1 nM.

For `O=C(c1cccc(C(F)(F)F)c1Cl)N1CCn2c(nnc2C2CC2)C1`, the 50% inhibitory concentration (IC50) was 31.6 nM.

`CCCc1nnc2n1CCN(C(=O)c1cccc(C(F)(F)F)c1Cl)C2`: the half-inhibitory concentration (IC50) was 25.1 nM.

With `O=C(c1cccc(C(F)(F)F)c1Cl)N1CCn2c(nnc2C2CCCCC2)C1`, the half-inhibitory concentration (IC50) is 50.1 nM.

With `Cc1nc(-c2nnc3n2CCN(C(=O)c2ccc(F)cc2Cl)C3)cs1`, the concentration for half-maximal inhibition (IC50) was 158 nM.

For `COCCc1nnc2n1CCN(C(=O)c1cccc(C(F)(F)F)c1Cl)C2`, the 50% inhibitory concentration (IC50) is 100 nM.

As for `O=C(c1cccc(C(F)(F)F)c1Cl)N1CCn2c(nnc2-c2ccccc2O)C1`, the half-inhibitory concentration (IC50) was 2.51 nM.

`O=C(c1cccc(C(F)(F)F)c1Cl)N1CCn2c(-c3ncccn3)cnc2C1`: the IC50 is 1.58 nM.

On to `O=C(c1cccc(C(F)(F)F)c1Cl)N1CCn2c(-c3cscn3)cnc2C1`, for which the IC50 was 1.26 nM.

On to `O=C(c1cccc(C(F)(F)F)c1Cl)N1CCn2c(nnc2C2CCCC2)C1`, for which the IC50 is 25.1 nM.

As to `Cn1ccnc1-c1nnc2n1CCN(C(=O)c1ccc(F)cc1Cl)C2`, the half-maximal inhibitory concentration (IC50) is 316 nM.

Take `O=C(c1ccc(F)cc1Cl)N1CCn2c(nnc2-c2cnc(Cl)cn2)C1`: the half-inhibitory concentration (IC50) was 200 nM.

As for `O=C(c1ccc(Cl)cc1C(F)(F)F)N1CCn2c(nnc2-c2cnccn2)C1`, the half-maximal inhibitory concentration (IC50) is 20 nM.

For `Cc1ccc(C(=O)N2CCn3c(nnc3-c3cnccn3)C2)c(C)c1`, the IC50 was 126 nM.

Turning to `Cc1nn(-c2ccccc2)c(C)c1CC(=O)NCc1ccccc1Br`, the IC50 is 316 nM.

On to `Cc1nn(-c2ccccc2)c(C)c1CC(=O)NCc1cccc(F)c1F`, for which the IC50 was 316 nM.

`Cc1nn(-c2ccccc2)c(C)c1CC(=O)NCc1c(F)cccc1Cl`: the IC50 is 316 nM.

For `Cc1nn(-c2ccccc2)c(C)c1CC(=O)NCc1cc(C(F)(F)F)ccc1Cl`, the IC50 is 501 nM.

Consider `Cc1nn(-c2ccccc2)c(C)c1CC(=O)NCc1cc(F)ccc1C(F)(F)F`, for which the IC50 was 501 nM.

Consider `Cc1nn(-c2ccccc2)c(C)c1CC(=O)NCc1c(Cl)cccc1Cl`, for which the IC50 is 63.1 nM.

`Cc1nn(-c2ccccc2)c(C)c1CC(=O)NCc1cc(Cl)ccc1Cl`: the IC50 was 631 nM.

`Cc1nn(-c2ccccc2)c(C)c1CC(=O)NCc1ccc(F)cc1C(F)(F)F`: the IC50 was 158 nM.

With `Cc1nn(-c2ccc(F)cc2F)c(C)c1CC(=O)NCc1ccc(F)cc1Cl`, the IC50 was 50.1 nM.

For the compound `Cc1nn(-c2cccc(F)c2)c(C)c1CC(=O)NCc1ccc(F)cc1Cl`, the IC50 is 200 nM.

For `Cc1nn(-c2cccc(Cl)c2)c(C)c1CC(=O)NCc1ccc(F)cc1Cl`, the half-inhibitory concentration (IC50) is 316 nM.

Regarding `COc1cccc(-n2nc(C)c(CC(=O)NCc3ccc(F)cc3Cl)c2C)c1`, the IC50 is 501 nM.

Turning to `Cc1nn(-c2ccccc2F)c(C)c1CC(=O)NCc1ccc(F)cc1Cl`, the IC50 is 158 nM.

As to `Cc1nn(-c2ccccc2Cl)c(C)c1CC(=O)NCc1ccc(F)cc1Cl`, the half-maximal inhibitory concentration (IC50) was 100 nM.

For the compound `COc1ccccc1-n1nc(C)c(CC(=O)NCc2ccc(F)cc2Cl)c1C`, the IC50 is 501 nM.

With `Cc1ccc(-n2nc(C)c(CC(=O)NCc3ccc(F)cc3Cl)c2C)cc1`, the IC50 was 126 nM.

Consider `Cc1nn(-c2ccccn2)c(C)c1CC(=O)NCc1ccc(F)cc1Cl`, for which the half-maximal inhibitory concentration (IC50) was 100 nM.

Take `Cc1c(CC(=O)NCc2ccc(F)cc2Cl)c(C(C)C)nn1-c1ccccc1`: the IC50 was 251 nM.

On to `Cc1nn(-c2ccccc2)c(C(C)C)c1CC(=O)NCc1ccc(F)cc1Cl`, for which the IC50 is 631 nM.

Regarding `Cc1nn(-c2ccc(N3CCCC3=O)cc2)c(C)c1CC(=O)NCc1ccc(F)cc1Cl`, the IC50 was 63.1 nM.

For `Cc1nn(-c2ccc(C#N)cn2)c(C)c1CC(=O)NCc1ccc(F)cc1Cl`, the half-inhibitory concentration (IC50) was 794 nM.

Consider `Cc1nn(-c2ncc(Cl)cc2Cl)c(C)c1CC(=O)NCc1ccc(F)cc1Cl`, for which the IC50 is 200 nM.

`Cc1nn(-c2ccncc2)c(C)c1CC(=O)NCc1ccc(F)cc1Cl`: the half-inhibitory concentration (IC50) is 63.1 nM.

Regarding `Cc1nn(-c2ccc(Cl)cn2)c(C)c1CC(=O)NCc1ccc(F)cc1Cl`, the IC50 was 251 nM.

Regarding `Cc1nn(-c2nccs2)c(C)c1CC(=O)NCc1ccc(F)cc1Cl`, the IC50 was 316 nM.

With `Cc1nn(-c2ccccc2)c(C)c1CC(=O)NCc1ccc(Cl)c(Cl)c1`, the IC50 was 158 nM.

As to `Cc1nn(-c2ccccc2)c(C)c1CC(=O)NCc1ccc(F)c(C(F)(F)F)c1`, the IC50 was 316 nM.

(Values after ChEMBL document CHEMBL2218064, “Structure-activity relationship data for chemical series of antagonists of the P2X7 receptor (Supplementary Bioactivity Data for publication CHEMBL1157114)”.)
